Source: a melting point compilation (Tetko et al.; mined from patent text by program, amines drawn as free bases though some values may be those of a salt)

melting point | Structure (SMILES)
95 to 105 °C | COC(=O)CCCc1cc2nc(Cl)ccc2n1S(=O)(=O)c1cc(Cl)ccc1Cl
232 to 233 °C | CC(C)(C)C(=O)Nc1ccncc1-c1n[nH]c2ccccc12
149 to 151 °C | CS(=O)(=O)CN=C(N)NCCSCc1csc(NC(N)=NCC(F)(F)C(F)(F)F)n1
163 to 164 °C | O=C1CCOc2ccc(OCc3ccc4ccc(Cl)cc4n3)cc21
249 to 250 °C | CC(O)c1ccc2nc(NC(=O)c3ccc(C(C)(C)C)cc3)cn2c1 (stereo not given)
142 to 146 °C | O=C(O)C(=O)CC(=O)c1cccn1Cc1cc(F)ccc1F
148 to 152 °C | O=C(Nc1c(F)cccc1Cl)c1ccc(-n2nc(C(F)(F)F)cc2C2CC2)c(F)c1
117 to 119 °C | CC(C)n1nc(-c2c(-c3ccccc3)nn3ccc(OCC(=O)NCCN(C)C)cc23)ccc1=O
194 to 195 °C | O=C(Nc1nccs1)C(CC1CCCC1)c1ccc(C(F)(F)F)c(F)c1 (stereo not given)
195 to 196 °C | NC(=O)C=Cc1cc2c(Oc3ccc(Br)cc3)cncc2s1
124 to 125 °C | Fc1cccc(Cn2cnnc2S)c1
125 to 126 °C | CCOC(=O)CCn1c(-c2ccc(F)cc2)cc2ccccc2c1=O
186 to 189 °C | O=c1ccc(S(=O)(=O)c2oc3ccccc3c2O)n[nH]1
151 to 153 °C | Oc1ccc(OCC(O)CNCCNc2cccc3[nH]ncc23)cc1 (stereo not given)
270 °C | CCOC(=O)c1cn(C)c2cnc3cc(N4CCCC4)c(F)cc3c2c1=O
194 to 196 °C | COC(=O)c1ccc(Nc2nccc(-c3ccncc3)n2)cc1
76.2 to 81.7 °C | Clc1ccc2c(c1)CCc1cccnc1C2=C1CCN(Cc2ccc(Cl)nc2)CC1
171 to 172 °C | CCOC(=O)C1=C(N)NC(c2ccccc2)=CC1c1cccc([N+](=O)[O-])c1 (stereo not given)
104 to 106 °C | OC(Cc1ccc(Cl)cc1)Cn1cncn1 (stereo not given)
124 to 126 °C | CC(C=O)C(C(=O)O)c1ccc(Cl)c(Cl)c1 (stereo not given)
128 to 131 °C | CCCCCn1c(C#N)ccc1-c1ccc2c(c1)C(C)(C)OC(=O)N2
114 to 115 °C | Clc1cccc(N2CCN(Cc3ccc4ccccc4c3)CC2)c1
211 to 214 °C | O=C1c2ccccc2CN1C1CCN(c2ccc(C(O)c3ccccc3)cc2)CC1 (stereo not given)

melting point | Structure (SMILES)
209 to 210 °C | Cc1c(CC(C)C(=O)c2cn(C)c3ccccc23)ncn1C(c1ccccc1)(c1ccccc1)c1ccccc1 (stereo not given)
189 to 191 °C | O=C(O)COc1ccc2cc(CNC(=O)c3cnn(-c4ccc(Cl)cc4)c3C(F)(F)F)ccc2c1
185 to 189 °C | Cc1ccc(N2CCN(c3c(C)c(O)c4c(c3C)CC(C)(C)O4)CC2)cc1
187 to 188 °C | CC(=O)NOCc1nc2c(N)nc3c(c2n1CC(C)C)CCCC3
165 to 166 °C | Cc1ccnc(NC(=O)c2c(-c3ccc(F)cc3)c(-c3ccc(F)cc3)cn2C(C)C)n1
207 to 209 °C | Cc1cc2c(-c3ccccc3Cl)c(NC(=O)Nc3ccc(Cl)cc3)c(=O)n(C)c2cc1C
210 to 214 °C | CCCc1cn2ccccc2c1C(=O)c1ccc(O)cc1
170 to 172 °C | CSc1nccc(-c2ssc(=S)c2C)n1
168 to 170 °C | O=C(CCCOc1ccc(-c2ccc(Cl)cc2)cc1)NO
75 to 76 °C | CS(=O)c1ccc(CCCCCCCCCCC(Cl)(Cl)C(=O)O)cc1 (stereo not given)
256 to 258 °C | NC(=O)c1cc(N2CCN(Cc3ccc(F)cc3)C2=O)n[nH]1
173 to 175 °C | CC1Nc2ccccc2-c2c([N+](=O)[O-])cnn21 (stereo not given)
180 °C | CC(C)(C)OC(=O)Nc1ccc(C#Cc2ccc(F)cc2)cc1N
275 to 277 °C | NC(=O)c1[nH]c2ccc(Cl)cc2c1S(=O)(=O)c1ccc(Cl)cc1
119 to 120 °C | CC(=O)C=Cc1ccc(NS(C)(=O)=O)c(Sc2ccc(F)cc2F)c1
122 to 123 °C | COc1ccccc1Oc1c(Cl)nc(-c2ccccn2)nc1NS(=O)(=O)c1ccc(C(C)(C)C)cc1
232 to 235 °C | NC(=O)C(OCC1c2ccccc2-c2ccccc21)c1ccc(C(=O)O)cc1 (stereo not given)
72.5 to 73.5 °C | CCCCS(=O)(=O)c1ccccc1C(=O)O
191 to 193 °C | CCOC(=O)C1=C(C)NC(C)=C(/C=C/S(=O)(=O)NC(C)C)C1Cc1cccc([N+](=O)[O-])c1 (stereo not given)
181 °C | COc1ccc(NC(=O)Nc2ccc(Cl)c(Cl)c2)cc1NC(=S)Nc1cc(C(F)(F)F)cc(C(F)(F)F)c1
91 to 94 °C | CC(O)c1ccc(NS(C)(=O)=O)c(Sc2ccc(Cl)cc2Cl)c1 (stereo not given)
92 to 97 °C | CCn1ncc(C(=S)c2ccc3c(c2C)/C(=N/OC)CCS3)c1O
196 to 198 °C | O=C(Nc1ccc(C(F)(F)F)cc1)NC1CCS(=O)(=O)CC1

melting point | Structure (SMILES)
156 to 158 °C | CS(=O)(=O)c1ccc(-n2nc(C(F)(F)F)cc2-c2ccc(-c3cscn3)c(F)c2)cc1F
209 to 211 °C | O=c1[nH]cnc2ccc(C(F)(F)F)cc12
93 to 95 °C | CC(=O)OCc1c(Br)cccc1N1Cc2cc(N(C)C)ccc2C1=O
178 to 181 °C | CCCOc1ccc(CCCOc2ccc3c(c2)C=C(C(=O)Nc2ccc(CN(C)C4CCOCC4)cc2)CCS3(=O)=O)cc1
203 to 206 °C | N=c1[nH]c2ccc(Cl)cc2c2nc(C3CCCO3)nn12 (stereo not given)
97 °C | Cc1nc(-c2ccc(OCCCCCOc3ccc(C(=N)NO)cc3)cc2)c(C(C)C)s1
240 °C | CC(C)NC(=O)N1CCc2[nH]cnc2C1c1ccccn1 (stereo not given)
84 to 86 °C | CCC1(CC)CC(O)CC(C)(C)N1OC(C)c1ccccc1 (stereo not given)
> 280 °C | CCn1c(=O)c2[nH]c(/C=C/c3ccc(OC)c(C)c3C)nc2n(CC)c1=O
257 °C | NNC(=O)Nc1cccc2c1C(=O)c1c-2n[nH]c1-c1ccc(N2CCNCC2)cc1
238 to 239 °C | CSc1ncc(Sc2nc(C)c(CC(=O)O)s2)c(C(=O)O)n1
188 to 191 °C | CN1CCCCC(c2cccc(O)c2)C1=O (stereo not given)
98 to 99 °C | Fc1ccc(-c2nc(CCCSc3ccccc3)[nH]c2-c2ccncc2)cc1
91 to 93 °C | COc1ccccc1NC(=S)c1ccc(C)cc1
110 to 111 °C | CC(=O)C(=O)CCCCCCOc1ccc(-c2ccccc2)cc1
> 210 °C | CCCOc1ccnc2[nH]cc(C(C)=O)c12
284 °C | C[C@H](CO)Nc1nc(SCc2ccccc2)nc2[nH]c(=O)[nH]c12
208 °C | N#Cc1cc(C(=O)Nc2ccc(Cl)cn2)nc(C(F)(F)F)c1
189 to 190 °C | CCCCn1c(O)c(N=Nc2ccc(S(=O)(=O)N(CC(C)O)CC(C)O)cc2)c(C)c(C#N)c1=O (stereo not given)
130 °C | CCOC(=O)C1CN(C(=O)c2ccccc2)CC1c1ccc(NC(=O)Cc2ccc(NC(=O)Nc3ccccc3C)c(OC)c2)cc1 (stereo not given)
174 to 175 °C | Oc1ccc2ccc(C(O)C(F)(F)F)cc2c1 (stereo not given)
134 to 136 °C | CC(C)=CCn1ncc(-c2ccc(S(N)(=O)=O)c(F)c2)c(-c2ccc(F)cc2)c1=O
120 to 121 °C | CCCc1c(OCc2cccc(OCc3ccc4ccccc4n3)c2)ccc2c(=O)cc(C(=O)OCC)oc12

melting point | Structure (SMILES)
192 to 194 °C | Cn1c(C(F)(F)F)cc(=O)n(-c2cc(Oc3ncccn3)c(Cl)cc2F)c1=O
168 to 169 °C | Cc1ccc(C(=O)Nc2c[nH]nc2C(=O)NCCOC(C)C)cn1
82 to 84 °C | CCCCCCC(=O)c1ccc(O)c(Cl)c1Cl
92 to 95 °C | CC1C(=O)Oc2c(Oc3ccccc3Cl)cccc21 (stereo not given)
152 to 153 °C | CC(Br)C(C)N1C(=O)C2(OCCCO2)c2cc(S(=O)(=O)N3CCCC3)ccc21 (stereo not given)
96 to 97 °C | COc1cc(CCC(=O)O)cc(I)c1O
215 to 216 °C | COc1ccc(-n2c(=O)oc(=O)c3ccccc32)cc1
151 to 153 °C | Cc1ccccc1-c1nc2c3ccccc3ccn2c1N
304 to 306 °C | O=C(O)c1ccc(C23CC4CC(C2)CC(c2ccc(C(=O)O)cc2)(C4)C3)cc1
73 to 80 °C | CCN(Cc1cc(Br)ccc1OCC1CC1)c1ccc(C(=O)O)nn1
115 to 116 °C | O=c1ccoc(C(OC2CCCCO2)c2ccccc2)c1OCc1ccccc1 (stereo not given)
163 to 166 °C | CC1(C)CC(OC(=O)c2ccc(CN(O)Cc3ccc(C(=O)OC4CC(C)(C)N(OC5CCCCC5)C(C)(C)C4)cc3)cc2)CC(C)(C)N1OC1CCCCC1
284 to 287 °C | Cn1c2cc(C#N)ccc2c2nc3ccccc3nc21
65.5 to 67.5 °C | O=C1c2cc(CCCCOC(=O)C(F)(F)F)ccc2OCc2sccc21
89 °C | N#Cc1cc(N)ccc1Oc1ccccc1
110 to 115 °C | Cc1sc(N)nc1-c1ccc(CCN2CCN(c3cccc(C(F)(F)F)c3)CC2)cc1
190 to 191 °C | CCCC(CCC)C(=O)NC(=O)C(N)c1ccccc1 (stereo not given)
162 to 165 °C | CN(C)c1ccc(NC(=O)N(C[C@H]2CC[C@H](CN(C(=O)Nc3ccc(N(C)C)cc3)C3CCCC3)CC2)C2CCCC2)cc1
161 to 163 °C | CCCCCCNc1ccc([N+](=O)[O-])cc1C(=O)O
325 to 329 °C | Cc1cc2n[nH]c(=O)n2nc1-c1ccc(C(N)=S)cc1
135 to 136 °C | CC(=O)C1CC2=C(CO1)C(=O)c1ccccc1C2=O (stereo not given)
251 to 252 °C | NC(=O)c1c(C(=O)O)cnn1-c1ccc(Br)cc1
104 to 106 °C | CCOCc1cc(N2C(=O)C3=C(CCCC3)C2=O)c(F)cc1Br

Structure (SMILES) | melting point
CN1CCN(c2ccc(N)cc2C#N)CC1 | 45 to 46 °C
CC12CCC3C(CC=C4C=C(OCc5ccccc5)CCC43C)C1CCC2=O (stereo not given) | 172 to 178 °C
Nc1cc(N)c(Cl)cc1Cl | 138 to 141 °C
CN1CCN(c2cc([N+](=O)[O-])ccc2Cl)CC1 | 63 to 64 °C
COCc1cc(C(=O)CBr)on1 | 53 to 54 °C
CCCCCC(C)C(C)c1cc(OC)c2c(c1)OC(C)(C)C1=C2CN(C(N)=NO)CC1 (stereo not given) | 176 to 178 °C
NC(=O)c1ncn2c1[C@@H]1CCCN1C(=O)c1cc(F)ccc1-2 | 239 to 240 °C
CCCc1c(C(=O)C(C)C)c2ccc(C(=O)OC)cc2n1Cc1ccccc1[N+](=O)[O-] | 166 °C
